Values quoted from earlier work, collected in patent US12343348B2, “Methods for treating subjects with Prader-Willi syndrome or Smith-Magenis syndrome” (Essentialis, Inc., priority 2014, dated 2025).

How the values were obtained:
[1] = molecular target: Kir6.2/SUR1 channel (Rattus norvegicus, UniProt Q09429); details: Dabrowski, et al., Diabetes 51 (2002)
[2] = molecular target: T1, KATP channel (Homo sapiens, UniProt Q09428); details: patients with hyperinsulinism and patients with pancreatic insulinoma
T1 construct: host or cells: patients with hyperinsulinism or pancreatic insulinoma (endogenous channel)
T1 sequence (Q09428 whole entry): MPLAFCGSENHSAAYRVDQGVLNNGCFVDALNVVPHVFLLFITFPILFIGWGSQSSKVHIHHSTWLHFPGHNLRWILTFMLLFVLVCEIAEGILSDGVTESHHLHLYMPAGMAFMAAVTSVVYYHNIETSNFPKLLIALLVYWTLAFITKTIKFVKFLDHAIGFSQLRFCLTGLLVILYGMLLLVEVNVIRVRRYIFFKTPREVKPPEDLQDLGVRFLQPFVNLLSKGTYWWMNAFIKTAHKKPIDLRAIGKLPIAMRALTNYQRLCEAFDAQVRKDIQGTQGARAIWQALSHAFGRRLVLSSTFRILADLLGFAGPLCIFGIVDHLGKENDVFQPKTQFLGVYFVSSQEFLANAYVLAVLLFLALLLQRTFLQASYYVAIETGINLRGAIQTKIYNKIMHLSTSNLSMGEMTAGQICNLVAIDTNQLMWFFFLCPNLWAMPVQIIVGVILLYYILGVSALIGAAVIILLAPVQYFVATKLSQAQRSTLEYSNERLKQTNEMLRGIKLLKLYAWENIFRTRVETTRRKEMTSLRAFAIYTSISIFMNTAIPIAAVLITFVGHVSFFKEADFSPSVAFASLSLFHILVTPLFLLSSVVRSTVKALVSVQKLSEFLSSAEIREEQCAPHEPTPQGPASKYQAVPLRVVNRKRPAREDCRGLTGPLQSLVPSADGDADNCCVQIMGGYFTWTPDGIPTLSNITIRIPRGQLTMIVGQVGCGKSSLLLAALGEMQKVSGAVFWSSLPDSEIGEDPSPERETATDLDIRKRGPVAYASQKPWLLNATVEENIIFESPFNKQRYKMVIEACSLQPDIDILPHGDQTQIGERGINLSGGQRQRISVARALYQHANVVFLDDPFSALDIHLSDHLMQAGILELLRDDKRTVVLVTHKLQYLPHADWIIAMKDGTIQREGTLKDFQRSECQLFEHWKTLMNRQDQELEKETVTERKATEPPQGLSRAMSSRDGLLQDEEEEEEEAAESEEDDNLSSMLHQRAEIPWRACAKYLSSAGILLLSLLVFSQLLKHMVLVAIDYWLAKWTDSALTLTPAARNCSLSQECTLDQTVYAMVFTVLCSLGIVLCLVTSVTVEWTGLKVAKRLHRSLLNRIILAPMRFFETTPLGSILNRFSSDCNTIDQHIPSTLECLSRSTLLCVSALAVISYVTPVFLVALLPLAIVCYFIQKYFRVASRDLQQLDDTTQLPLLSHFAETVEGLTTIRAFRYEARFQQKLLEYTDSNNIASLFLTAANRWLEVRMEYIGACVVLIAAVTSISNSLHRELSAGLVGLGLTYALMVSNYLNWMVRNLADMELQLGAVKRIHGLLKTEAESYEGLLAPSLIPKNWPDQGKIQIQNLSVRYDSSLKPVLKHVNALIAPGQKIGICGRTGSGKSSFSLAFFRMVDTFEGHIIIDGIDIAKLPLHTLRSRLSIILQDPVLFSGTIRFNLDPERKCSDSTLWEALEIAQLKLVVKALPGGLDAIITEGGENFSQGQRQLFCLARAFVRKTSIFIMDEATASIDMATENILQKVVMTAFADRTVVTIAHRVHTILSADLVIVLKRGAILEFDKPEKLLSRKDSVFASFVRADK
T1 sequence (Q14654 whole entry partner): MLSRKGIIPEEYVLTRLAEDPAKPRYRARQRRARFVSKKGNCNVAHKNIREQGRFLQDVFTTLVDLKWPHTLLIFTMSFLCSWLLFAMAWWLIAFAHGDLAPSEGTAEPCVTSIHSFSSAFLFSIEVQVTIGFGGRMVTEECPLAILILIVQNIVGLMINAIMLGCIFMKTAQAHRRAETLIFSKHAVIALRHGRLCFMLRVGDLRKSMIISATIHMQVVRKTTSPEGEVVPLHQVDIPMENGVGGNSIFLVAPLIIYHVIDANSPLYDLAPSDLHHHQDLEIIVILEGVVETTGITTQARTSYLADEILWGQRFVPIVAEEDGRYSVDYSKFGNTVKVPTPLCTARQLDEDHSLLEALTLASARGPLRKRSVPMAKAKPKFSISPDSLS

Chain of Kir6.2/SUR1 channel (Q09429 whole entry): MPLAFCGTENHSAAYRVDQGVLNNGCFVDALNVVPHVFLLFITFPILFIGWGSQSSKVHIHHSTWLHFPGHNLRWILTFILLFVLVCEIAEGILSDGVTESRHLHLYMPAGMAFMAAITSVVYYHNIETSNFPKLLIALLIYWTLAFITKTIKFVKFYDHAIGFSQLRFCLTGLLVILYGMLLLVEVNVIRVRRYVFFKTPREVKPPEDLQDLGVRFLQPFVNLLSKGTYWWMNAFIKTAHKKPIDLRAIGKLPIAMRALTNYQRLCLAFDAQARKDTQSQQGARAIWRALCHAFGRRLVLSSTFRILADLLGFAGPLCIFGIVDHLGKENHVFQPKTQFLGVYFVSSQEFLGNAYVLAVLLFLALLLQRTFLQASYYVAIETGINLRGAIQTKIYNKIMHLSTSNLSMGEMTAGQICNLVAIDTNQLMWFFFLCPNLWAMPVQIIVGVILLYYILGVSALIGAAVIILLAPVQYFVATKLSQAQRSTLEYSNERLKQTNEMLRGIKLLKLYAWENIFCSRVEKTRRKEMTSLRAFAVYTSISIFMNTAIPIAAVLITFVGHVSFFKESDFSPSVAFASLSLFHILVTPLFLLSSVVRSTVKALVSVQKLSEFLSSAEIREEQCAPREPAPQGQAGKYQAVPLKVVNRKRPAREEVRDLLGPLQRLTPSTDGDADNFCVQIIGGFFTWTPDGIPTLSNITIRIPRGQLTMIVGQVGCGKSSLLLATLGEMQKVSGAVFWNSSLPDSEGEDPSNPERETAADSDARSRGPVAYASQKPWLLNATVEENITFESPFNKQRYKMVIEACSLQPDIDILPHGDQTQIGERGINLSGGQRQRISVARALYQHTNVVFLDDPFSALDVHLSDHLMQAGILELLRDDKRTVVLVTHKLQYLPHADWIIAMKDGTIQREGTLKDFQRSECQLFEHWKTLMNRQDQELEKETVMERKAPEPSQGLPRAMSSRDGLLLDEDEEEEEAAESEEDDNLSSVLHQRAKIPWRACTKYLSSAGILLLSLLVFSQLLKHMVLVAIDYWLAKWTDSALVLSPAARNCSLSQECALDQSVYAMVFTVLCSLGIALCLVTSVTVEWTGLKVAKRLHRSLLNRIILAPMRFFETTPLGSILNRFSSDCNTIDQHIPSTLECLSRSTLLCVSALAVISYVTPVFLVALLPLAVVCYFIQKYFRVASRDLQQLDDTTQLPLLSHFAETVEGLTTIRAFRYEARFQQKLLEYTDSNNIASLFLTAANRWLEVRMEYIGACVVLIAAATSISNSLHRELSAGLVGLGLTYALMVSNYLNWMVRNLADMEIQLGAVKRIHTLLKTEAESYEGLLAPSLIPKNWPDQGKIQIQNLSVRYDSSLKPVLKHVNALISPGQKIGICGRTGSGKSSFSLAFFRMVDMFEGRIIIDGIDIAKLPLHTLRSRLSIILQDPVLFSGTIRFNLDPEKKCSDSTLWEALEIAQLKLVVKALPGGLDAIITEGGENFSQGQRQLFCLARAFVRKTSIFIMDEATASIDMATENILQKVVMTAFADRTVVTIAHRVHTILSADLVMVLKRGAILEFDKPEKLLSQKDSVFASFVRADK
Chain of Kir6.2/SUR1 channel (Q61743 whole entry partner): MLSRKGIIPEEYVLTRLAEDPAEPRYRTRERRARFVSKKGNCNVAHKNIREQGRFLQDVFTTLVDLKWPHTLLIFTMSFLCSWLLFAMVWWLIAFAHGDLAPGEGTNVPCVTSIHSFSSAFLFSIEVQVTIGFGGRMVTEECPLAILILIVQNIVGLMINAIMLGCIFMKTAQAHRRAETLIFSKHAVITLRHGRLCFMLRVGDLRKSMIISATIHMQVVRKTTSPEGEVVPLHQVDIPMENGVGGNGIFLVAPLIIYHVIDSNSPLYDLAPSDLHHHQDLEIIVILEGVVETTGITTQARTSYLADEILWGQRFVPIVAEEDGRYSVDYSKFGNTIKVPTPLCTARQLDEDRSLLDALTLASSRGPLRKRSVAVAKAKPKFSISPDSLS

| KATP channel activation [2] | SMILES | KATP channel opener selectivity [1] |
| --- | --- | --- |
|  | COc1ccc2c(c1)S(=O)(=O)N=C(NC(C)C)N2 [3-isopropylamino-7-methoxy-4H-1,2,4,-benzothiadiazine 1,1-dioxide] | selective Kir6.2/SUR1 channel opener |
| effective KATP channel activator | CC(C)N=C1Nc2cc(Cl)c(Cl)cc2S(=O)(=O)N1 [BPDZ 154] |  |
